# Assays:
# [1] = reproductive; oral; feed
# Apis mellifera = settings: acute; duration: 48 hours; oral; unspecified; mortality
# Bibionidae = settings: chronic/long-term; duration: 28 days
# Canidae = settings: chronic; duration: 1 years; oral; Dog Other; clinical chemistry
# Daphnia magna = settings: chronic/long-term; duration: 21 days; reproduction
# Rattus norvegicus = settings: acute; oral; mortality
# Tagia sp. = settings: acute; mortality
# Typhlodromus pyri = test: LR50; higher = less toxic; settings: acute; duration: 14 days; mortality
smiles,measurement,setting,value
CCC(C)(C)C(=O)OC1=C(c2ccc(Cl)cc2Cl)C(=O)OC12CCCCC2 [Spirodiclofen],NOEC,[1],6 mg/kg-day
same,NOEC,Anas platyrhynchos; reproductive,111 mg/kg-day
same,LC50,"Anas platyrhynchos; short-term, oral, feed, mortality",> 2270 mg/kg-day
same,LD50,Apis mellifera,> 196 µg/piece
same,NOEC,Bibionidae,0.032 mg/L
same,NOAEL,Canidae,1.45 mg/kg-day
same,LC50,"Colinus virginianus; acute, oral, diet, mortality",> 1060 mg/kg-day
same,LD50,"Colinus virginianus; acute, oral, mortality",> 2000 mg/kg
same,NOEC,Colinus virginianus; reproduction developmental,51 mg/kg-day
same,NOEC,Daphnia magna,0.0111 mg/L
same,LC50,"Oncorhynchus mykiss; acute, duration: 96 hours, mortality",> 0.0351 µg/mL
same,NOEC,"Oncorhynchus mykiss; chronic/long-term, duration: 97 days, time to hatch",0.00195 mg/L
same,LD50,Rattus norvegicus,> 2500 mg/kg
same,LC50,Tagia sp.,> 1000 mg/kg
same,LR50,Typhlodromus pyri,2.4 g/ha

# From EPA's ToxValDB 9.5 (doi:10.2903/j.efsa.2009.339r)
